Assay results as given in paper PMC7347136 (PLoS ONE, 2020).
Like-named read-outs stand apart in the source and are kept apart here.

Experiments:
H23 = experiment: Resazurin reduction cell viability assay; type: cell-based, human; conditions: 6 h pulse
THP-1 = experiment: Resazurin reduction cell viability assay; type: cell-based, human
Experimental: Solid tumor cell lines were seeded in 100 μl medium into 96-well plates at an appropriate cell number determined by a cell dilution assay (Cal51–2000 cells/well; Colo205, MCF10A and 184A1–3000 cells/well and MDA-MB-468, HCC1954–4000 cells/well). AML suspension cells were seeded in 96-well plates at approximately 3000 cells per well. Cells were incubated overnight at 37°C, 5% CO2. The following day, 100 μl fresh medium containing increasing concentrations of appropriate compound was added and the cells were incubated for up to 72 h at 37°C, 5% CO2. For pulse treatment of solid (adherent) tumor cell lines, medium was aspirated and replaced with fresh drug-free medium. For pulse treatment of suspension lines, plates were centrifuged at 478 xg for 5 min at the end of the incubation period with compound, medium containing compound was carefully aspirated and replaced with fresh compound-free medium. A total of 72 h after the start of treatment, 20 μl of a 10X stock of resazurin sodium salt (Sigma-Aldrich, Dorset, UK) prepared in medium was added to the cells and incubated for up to 3 h. […] was measured on the Wallac Victor plate reader (Cambridge, UK) at 544–595 nm. IC50/70/90 calculations were determined in XLFit.

sensitive AML cell lines = experiment: Viacount viability assay by flow cytometry; type: cell-based; conditions: Homo sapiens, 6 h pulse, assessed at 48 h, read-out: non-viable cells
Experimental: AML cells were seeded at 5 x 10^5 cells/ml in a 6-well plate and incubated with the test compound or vehicle control (DMSO) for 6, 8 or 10 h. At the end of the incubation period, cells were collected into Falcon tubes, pelleted via centrifugation (5 min at 478 x g), and medium containing compound was aspirated. The cells were resuspended in 4 ml of fresh compound-free medium and returned to the 6-well plates for further incubation. Following compound addition, 100 μl (at 24 h), 75 μl (at 48 h), 50 μl (at 72 h) or 30 μl (at 96 h) of a homogeneous suspension of cells were removed from the culture, made up to 100 μl with medium and mixed with 100 μl Guava Viacount reagent (Millipore, Nottingham, UK) in a 96-well plate. Samples were incubated for 20 min in the dark, mixed and then analyzed by GuavaSoft 2.6 software on the Guava Easycyte 8HT (Millipore). Guava Viacount software was used to gate and calculate the proportion of viable and dead cells in the population.

With CC[C@H](Nc1nc(NCc2cnc(C)cc2C)c2ncn(C(C)C)c2n1)[C@@H](C)O [Fadraciclib, 2-pentanol, 3-[[6-[[(4,6-dimethyl-3-pyridinyl)methyl]amino]-9-(1-methylethyl)-9Hpurin-2-yl]amino]-, (2R,3S)] the “IC50, short pulse” value (H23) was “submicromolar”, the IC50 (THP-1; Homo sapiens, THP-1, 72 h, THP-1, 72 h continuous, read-out: 72 h continuous IC50 ± SD) was 570 ± 180 nM and the IC50 (THP-1; Homo sapiens, THP-1, 72 h, THP-1, value the 7 x 7 combination matrix spans, 72 h, read-out: IC50 value of each compound (single agent)) was 430 nM. The IC50 (THP-1; Homo sapiens, THP-1, read-out: 6 h pulse IC50 ± SD, THP-1, 6 h pulse then 66 h release) was 1100 nM, the IC90 (THP-1; Homo sapiens, THP-1, 6 h pulse then 66 h release) was 6800 nM and the IC50 (THP-1; read-out: 6 h pulse IC50 ± SD, THP-1, 6 h pulse then 66 h release) was 1080 ± 230 nM. The cytotoxicity at 1 µM (sensitive AML cell lines) was about 100%.
